Experimental data from ChEMBL document CHEMBL5058564, “EUbOPEN Chemogenomics Library 2 (Incucyte)” (2022).
Where “and” joins values, the source holds several entries; their conditions need not be identical. Identical values can stand only once.

How the values were obtained:
Format in all cases: toxicity, cell-based
[1] = system: HEK-293T; test: Incucyte cell viability with HEK293T; conditions: human, 10 µM, compound concentration 10 uM
[2] = system: Fibroblast; test: Incucyte cell viability with human fibroblast; conditions: 10 µM, compound concentration 10 uM
[3] = system: U2OS; test: Incucyte cell viability with U2OS; conditions: human, 10 µM, compound concentration 10 uM
[4] = 0 h, replicate number 1, timepoint 0 hours
[5] = 0 h, replicate number 2, timepoint 0 hours
[6] = 6 h, replicate number 1, timepoint 6 hours
[7] = 6 h, replicate number 2, timepoint 6 hours
[8] = 12 h, replicate number 1, timepoint 12 hours
[9] = 12 h, replicate number 2, timepoint 12 hours
[10] = 18 h, replicate number 1, timepoint 18 hours
[11] = 18 h, replicate number 2, timepoint 18 hours
[12] = 24 h, replicate number 1, timepoint 24 hours
[13] = 24 h, replicate number 2, timepoint 24 hours
Note: unitless GR value; below 1 slowed growth and below 0 cell loss.

| SMILES | Growth Rate [1, 7] | Growth Rate [1, 8] | Growth Rate [1, 9] | Growth Rate [1, 10] | Growth Rate [1, 11] | Growth Rate [1, 12] | Growth Rate [1, 13] | Growth Rate [2, 5] | Growth Rate [2, 6] | Growth Rate [2, 7] | Growth Rate [2, 8] | Growth Rate [2, 9] | Growth Rate [2, 10] | Growth Rate [2, 11] | Growth Rate [2, 12] | Growth Rate [2, 13] | Growth Rate [3, 6] | Growth Rate [3, 7] | Growth Rate [3, 11] | Growth Rate [3, 10] | also measured |
| --- | --- | --- | --- | --- | --- | --- | --- | --- | --- | --- | --- | --- | --- | --- | --- | --- | --- | --- | --- | --- | --- |
| O=C(O)c1n[nH]c2c1C[C@H]1C[C@@H]21 | 0.86 and 0.89 | 0.71 | 0.64 | 0.67 | 0.58 | 0.7 | 0.58 | 0.18 and 0.32 | 0.39 and 0.14 | 0.95 and 0.74 | 0.55 and 0.57 | 0.86 | 0.72 and 0.87 | 0.89 | 0.63 and 0.53 | 0.79 | -0.58 | 0.74 | 0.91 and 0.92 | – | Growth Rate [1, 4]: 0.7; Growth Rate [1, 5]: 0.85; Growth Rate [1, 6]: 0.55; Growth Rate [2, 4]: 0.67; Growth Rate [3, 9]: 0.86; Growth Rate [3, 12]: 0.99; Growth Rate [3, 13]: 1 |
| COc1ccc(S(=O)(=O)N2C(=O)[C@@](c3ccccc3OC)(N3C[C@H](O)C[C@H]3C(=O)N(C)C)c3cc(Cl)ccc32)c(OC)c1 | 0.78 | – | – | – | – | – | – | – | 0.08 | -0.04 | 0.09 | 0.24 | 0.36 | 0.45 | 0.43 | 0.6 | 0.33 | – | 0.98 | 0.82 | Growth Rate [3, 4]: 0.6; Growth Rate [3, 5]: -1; Growth Rate [3, 13]: 0.9 |
| Cl.O=C(O)c1cc(-c2ccc(C3CCNCC3)cc2)c2ccc(-c3ccc(C(F)(F)F)cc3)cc2c1 | – | 0.71 | – | 0.29 | 0.68 | 0.2 | 0.49 | -0.95 | -0.7 | 0.67 | -0.12 | 0.42 | -0.01 | 0.43 | 0.06 | 0.23 | 0.77 | 0.7 | 0.48 | 0.6 | Growth Rate [1, 4]: -0.99; Growth Rate [1, 5]: -0.98; Growth Rate [2, 4]: -0.16; Growth Rate [3, 8]: 0.79; Growth Rate [3, 9]: 0.48; Growth Rate [3, 12]: 0.6; Growth Rate [3, 13]: 0.44 |
| COC1(C[S@@+]([O-])c2ccccc2)CCN(CCc2c[nH]c3ccc(F)cc23)CC1 | 0.72 | – | 0.77 | 0.91 | – | 0.8 | – | – | 0.42 | -0.24 | 0.32 | 0.15 | 0.49 | 0.53 | 0.53 | 0.79 | -0.09 | – | – | – | Growth Rate [1, 4]: 0.79; Growth Rate [3, 4]: 0.42; Growth Rate [3, 5]: -1 |
| COc1cc2nc(N3CCN(C(=O)COc4c(OC)cccc4C(C)C)CC3)nc(N)c2cc1OC.Cl.Cl | 0.9 | -0.06 | 0.66 | 0.21 | 0.61 | 0.39 | 0.84 | 0.71 | -0.72 | -0.55 | -0.84 | -0.41 | -0.75 | -0.48 | -0.65 | -0.39 | – | – | – | – | Growth Rate [1, 5]: 0.59; Growth Rate [1, 6]: -0.28; Growth Rate [3, 5]: -1; Growth Rate [3, 8]: 0.56 |
| Cc1ccc(O)c([C@H](CCN(C(C)C)C(C)C)c2ccccc2)c1.O=C(O)C(O)C(O)C(=O)O [TOLTERODINE TARTRATE] | – | 0.79 | – | – | – | – | – | 0.83 | 0.59 | – | 0.92 | – | – | – | – | – | 0.98 | – | – | – | Growth Rate [1, 5]: 0.52; Growth Rate [1, 6]: 0.89; Growth Rate [3, 4]: -0.73; Growth Rate [3, 5]: 0.94 |
| CC(C)Oc1ccc(-c2nc(-c3cccc4c3CC[C@@H]4NCCO)no2)cc1C#N [OZANIMOD] | -0.68 | -0.42 | -0.34 | -0.32 | -0.35 | -0.25 | -0.29 | – | 0.57 | 0.42 | 0.12 | -0.28 | 0.03 | -0.49 | -0.09 | -0.43 | – | -0.16 | 0.01 | 0.41 | Growth Rate [1, 6]: -0.7; Growth Rate [3, 8]: 0.37; Growth Rate [3, 9]: -0.05; Growth Rate [3, 12]: 0.38; Growth Rate [3, 13]: 0.04 |
| CNC[C@H](O)c1ccc(O)c(O)c1 [EPINEPHRINE] | – | 0.73 | – | 0.84 | – | – | – | -0.14 | – | – | – | – | – | – | – | – | 0.63 | 0.96 | 0.9 | 0.85 | Growth Rate [1, 4]: 0.03; Growth Rate [1, 6]: 0.83; Growth Rate [2, 4]: 0.11; Growth Rate [3, 4]: 0.36; Growth Rate [3, 8]: 0.43; Growth Rate [3, 9]: 0.71; Growth Rate [3, 12]: 0.86; Growth Rate [3, 13]: 0.94 |
| N[C@@H](CCP(=O)(O)O)C(=O)O | 0.79 | – | 0.88 | – | – | – | 0.78 | – | -0.06 | – | 0.45 | – | – | – | – | – | 0.67 | – | 0.78 | 0.86 | Growth Rate [1, 4]: 0.99; Growth Rate [3, 5]: -1; Growth Rate [3, 8]: 0.39; Growth Rate [3, 13]: 0.97 |
| Cc1nc2ccc(Oc3ccc(F)cc3)cc2c(=O)n1C[C@H]1CCCN(C(C)C)C1.Cl | 0.52 | -0.18 | 0.29 | -0.23 | 0.13 | -0.2 | -0.05 | – | -0.24 | -0.65 | -0.26 | -0.42 | -0.42 | -0.21 | -0.38 | -0.28 | -0.6 | 0.98 | 0.96 | – | Growth Rate [1, 6]: 0.01; Growth Rate [3, 9]: 0.97 |
| C[C@]12N[C@H](Cc3ccccc31)c1ccccc12 [DIZOCILPINE] | – | – | 0.84 | – | 0.88 | – | 1 | 0.6 | 0.45 | – | 0.08 | – | 0.43 | – | 0.25 | – | 0.6 | 0.81 | 0.93 | 0.97 | Growth Rate [3, 9]: 0.75; Growth Rate [3, 13]: 0.98 |
| Cc1ccc(OCC(O)C(C)NC(C)C)c2c1CCC2.Cl (stereo unspecified) | 0.7 | 0.49 | 0.63 | 0.16 | 0.65 | 0.03 | 0.62 | 0.52 | – | 0.19 | 0.74 | 0.32 | 0.5 | 0.54 | 0.38 | 0.51 | 1 | 0.87 | – | 0.98 | Growth Rate [1, 5]: 0.95; Growth Rate [2, 4]: 0.41; Growth Rate [3, 4]: 0.09; Growth Rate [3, 5]: 0.28; Growth Rate [3, 8]: 0.83 |
| C[C@H](N)COC(=O)[C@@H](CCCCN)NC(=O)Cc1c(-c2ccc3ccccc3c2)[nH]c2c1ccc1ccccc12 | – | 0.97 | – | – | – | – | – | 0.37 | 0.67 | – | – | – | 0.71 | – | 0.64 | – | 0.46 | – | 0.76 | 0.73 | Growth Rate [1, 5]: 0.88; Growth Rate [2, 4]: 0.29; Growth Rate [3, 8]: 0.89; Growth Rate [3, 9]: 0.83 |
| Cc1cc(C)cc(C(=O)NOCCCCCC(=O)NO)c1 | – | 0.54 | 0.67 | 0.24 | 0.37 | 0.15 | 0.32 | 0.7 | – | – | 0.99 | – | – | – | 0.77 | – | 0.82 | 0.51 | 0.4 | 0.34 | Growth Rate [1, 5]: 0.38; Growth Rate [2, 4]: -0.03; Growth Rate [3, 4]: 0.03; Growth Rate [3, 5]: -0.5; Growth Rate [3, 8]: 0.43; Growth Rate [3, 9]: 0.5; Growth Rate [3, 12]: 0.37; Growth Rate [3, 13]: 0.36 |
